According to patent publication US20210403864A1, “METHODS AND COMPOSITIONS FOR TREATING ACTIVATED G-ALPHA Q MUTANT CANCERS OR MELANOCYTIC MALIGNANCIES” (Memorial Sloan Kettering Cancer Center, priority 2018, published 2021):

What was measured:
[1] = system: human Mel202 uveal melanoma xenografts; test: In vivo anti-tumor activity, xenografts in SCID mice; conditions: MEK162 10 mg/kg P.O. b.i.d.; YM-254890 2.5 mg/kg i.p. q.d.; over 20 days; single agents vs vehicle, combination vs vehicle and single agents
Protocol: To evaluate the effect of YM-254890 and binimetinib (MEK162) in vivo, Mel202 uveal melanoma xenografts were established in SCID mice, and the mice were treated with vehicle only, 10 mg/kg MEK162 (P.O., b.i.d.), YM-254890 (2.5 mg/kg i.p., q.d.) or a combination of MEK162 and YM-254890. Tumor volumes were measured over 20 days.

[2] = system: PKC and MAPK signaling (pRASGRP3, p-CRAF, p-MEK1/2, p-ERK1/2), cyclin D1 protein; test: Western blot of downstream UVM signaling in UVM cells and A375 cells; type: cell-based, human; conditions: for inhibition of PKC and MAPK signaling and cyclin D1 protein / inhibition of MAPK targets (p-CRAF, p-MEK1/2, p-ERK1/2) / change in pRASGRP3: 500 nM YM; for inhibition of MAPK targets (p-CRAF, p-MEK1/2, p-ERK1/2): 2 hours
Protocol: Immunoblotting. Lysates were harvested using SDS lysis buffer (50 mM Tris-HCL, pH 6.8, 1 mM EDTA, 150 mM NaCl, 1% SDS, […]) supplemented with fresh proteinase and phosphatase inhibitors (PhosSTOP, Roche, Basel, Switzerland; Complete EDTA-Free, Roche, Basel, Switzerland) and 1% PMSF (Sigma-Aldrich, St. Louis, Mo.). Lysates were incubated on ice for 30 minutes, sonicated for 15 minutes, and then centrifuged at max speed for 10 minutes at 4° C. Protein levels were quantified using BCA protein assay (Thermo Scientific, Waltham, Mass.). NuPAGE LDS Sample Buffer (4×) was added to a final concentration of 1×. Samples were run on NuPAGE Novex 4-12% Bis-Tris protein gels (Life Technologies, Carlsbad, Calif.), transferred electrophoretically to 0.45 μm PVDF membranes (Immobilon, EMD Millipore, Burlington, Mass.), and then blocked with StartingBlock blocking buffer (Thermo Scientific, Waltham, Mass.) for 1 hour at room temperature. Primary antibodies were incubated at 4° C. overnight in StartingBlock buffer at 1:1,000 dilution, unless noted otherwise. Primary Antibodies used in the experiments described herein are provided below:
Given the unexpected sensitivity of GNAQ^Q209L mutation to YM in the melan-a system, the effect of YM on three human UVM cell lines that harbored the GNAQ^Q209L/P mutation was evaluated, using the BRAF^V600E mutant A375 cutaneous melanoma cell line as a negative control.

GNAQ^R183Q = molecular target: T1, GNAQ^R183Q (Homo sapiens, UniProt P50148, R183Q); test: IP1 accumulation assay in mutation dependent melan-a cells; type: cell-based, mouse
T1 construct: host or cells: melan-a (immortalized mouse melanocytes), retroviral transduction with MSCV-Puro
T1 sequence (P50148 1-359 R183Q): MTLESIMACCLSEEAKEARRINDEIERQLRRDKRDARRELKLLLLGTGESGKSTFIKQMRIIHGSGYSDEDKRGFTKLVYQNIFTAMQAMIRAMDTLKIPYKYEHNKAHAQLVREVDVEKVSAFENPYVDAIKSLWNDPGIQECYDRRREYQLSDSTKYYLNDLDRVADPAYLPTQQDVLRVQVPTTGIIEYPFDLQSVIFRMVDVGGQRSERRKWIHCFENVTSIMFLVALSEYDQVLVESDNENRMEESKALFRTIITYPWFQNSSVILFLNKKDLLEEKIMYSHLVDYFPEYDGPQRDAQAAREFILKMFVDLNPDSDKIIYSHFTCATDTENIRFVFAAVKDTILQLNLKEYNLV
Protocol: Cells were treated with increasing concentrations of YM-254890 (YM) for 3 hours (top) and 24 hours (bottom). Error bars, s.e.m. from three biological replicates, each with three technical replicates.
Cell Culture and in vitro analysis. Mutation dependent melan-a cells were generated by transducing cells with cDNAs in MSCV-PURO (retrovirus) and then selecting cells with puromycin (1 μg/ml) for two days. TPA (Sigma-Aldrich, St. Louis, Mo.) was then withdrawn from cultures. Cells with activating mutations (CYSLTR2^L129Q, GNAQ^G48V/R183Q/Q209L, KRAS^G12V, and BRAF^V600E) continued to proliferate over several passages (>2 weeks) and were then validated with qRT-PCR and immunoblots. Vector and WT controls were unable to maintain proliferation after a couple passages upon TPA withdrawal. All cells were cultured in media containing 10% FBS, L-glutamine ([…]), penicillin (100 U/ml), streptomycin (100 μg/ml). Melan-a cells provided by D. Bennett, St. George's Hospital, University of London (Johnson C P, et al., PLoS One. 12(6):1-17 (2017)), were cultured in RPMI supplemented with 200 nM TPA unless otherwise noted. HEK293T (from ATCC, Manassas, Va.) cells were cultured in DMEM-Q and UVM cells were cultured in RPMI. All cells tested negative for mycoplasma. Cell growth assays and YM dose response curves were assayed using CellTiter-glo 2.0 (Promega, Madison, Wis.) at given time points or after five days of incubation with YM and readout on a Glomax Luminometer (Promega, Madison, Wis.). IC50 values were calculated using Prism 7.0 software. Growth assays were compared to day 1 readings and dose response curves were compared to vehicle. Data shown is representative of at least three independent experiments with at least three technical replicates. Dose-response curves and growth assays were analyzed using GraphPad Prism 7.0 software.
IP1 Accumulation Assay. IP1 concentrations in GNAQ-transfected HEK293T cells, GNAQ-expressing melan-a cells and uveal melanoma cells was measured using a competitive homogenous time resolved fluorescence (HTRF) assay (CisBio, Bedford, Mass.). Briefly, 9,000 transiently transfected-HEK293T cells, 5,000 melan-a cells and 5,000 uveal melanoma cells were seeded in low-volume 384-well plates in 7 μL media for 24 hours prior YM-254890 treatment. Cells were then treated with various concentrations of YM-254890 diluted in the appropriate media at 37° C. for 3 hours or 24 hours. 1 h prior lysis, cells were supplemented with 1× Stimulation Buffer provided by the manufacturer (HEPES 10 mM, CaCl2) 1 mM, MgCl2 0.5 mM, KCl 4.2 mM, NaCl 146 mM, glucose 5.5 mM, LiCl 50 mM, pH 7.4) with 0.2% BSA and 50 mM of LiCl (to prevent IP1 degradation). Following incubation, cells were lysed by adding 3 μL/well of d2-labeled IP1 analogue as the fluorescence acceptor and the Terbium cryptate-labeled anti-IP1 mAb as the fluorescence donor, diluted in the kit-supplied lysis buffer. The plates were incubated overnight at RT and time-resolved fluorescence signals were read using the BioTek Synergy NEO plate reader (BioTek Instruments, Winooski, Vt.) at 620 nm and […]. Results were calculated as a 665 nm/620 nm signal ratio, and IP1 concentrations were interpolated from a standard curve prepared using the supplied IP1 calibrator. Results are shown as IP1 (nM). Dose-response curves and bar graphs were analyzed using GraphPad Prism 7.0 software.

YM-254890
tumor volume [1]: moderate reduction | inhibition of PKC and MAPK signaling and cyclin D1 protein ([2]; A375 cells (negative control)): not in A375 cells | p-ERK1/2 level ([2]; Mel202 cells, 24 hours): rebound | inhibition of pRASGRP3 ([2]; Mel202 cells, earlier time points, in contrast to Mel270 and OMM1.3): greater inhibition | inhibition of MAPK targets ([2]; Mel202 cells, in contrast to Mel270 and OMM1.3): decreased inhibition | inhibition of MAPK targets (p-CRAF, p-MEK1/2, p-ERK1/2) ([2]; Mel270 cells): significant inhibition | change in pRASGRP3 ([2]; Mel270 cells, 24 hours): small decreases | inhibition of MAPK targets (p-CRAF, p-MEK1/2, p-ERK1/2) ([2]; OMM1.3 cells): significant inhibition | change in pRASGRP3 ([2]; OMM1.3 cells, 24 hours): small decreases | inhibition of PKC and MAPK signaling and cyclin D1 protein ([2]; UVM cells): inhibited | fold less sensitive than CYSLTR2^L129Q and GNAQ^G48V mutants (IP1 accumulation) (GNAQ^R183Q; 24-hour treatment): approximately 10 fold | inhibition of IP1 accumulation (GNAQ^R183Q; 24-hour treatment): completely inhibited | sensitivity of IP1 accumulation after 3 hours versus 24 hours (GNAQ^R183Q; 3 hours of treatment): less sensitive
